Type in all cases: cell-based, Corynebacterium glutamicum
Assay [1] deals with ATCC13869-L30 strain. As to the kind of experiment: Resistance to 4-fluoroglutamic acid in a liquid medium. The settings on record: minimum liquid medium, 1.25 mM to 20 mM 4-fluoroglutamic acid, 31.5° C., culture without 4-fluoroglutamic acid set to 1 (FIG. 7). The method, then: (§1) 4-fluoroglutamic acid was added into the minimum liquid medium having the same composition as described in Example 4 but not containing agar to the final concentration of 1.25 mM, 2.5 mM, 5 mM, 10 mM, and 20 mM, respectively. Each of the ATCC13869 strain, ATCC13869ΔyggB strain, ATCC13869-L30 strain, and ATCC13869-A1 strain was spread over a CM-Dex plate and cultured at 31.5° C. overnight. Then, cells were collected, and after washing with the sterilized 0.85% NaCl solution, inoculated into the liquid medium and cultured at 31.5° C. with shaking. When the OD660 of each strain cultured without 4-fluoroglutamic acid reached 1.0, the culture was terminated and the obtained culture solution was diluted appropriately and spread over the CM-Dex plate overnight. The number of colonies which appeared were calculated and designated as a viable cell number.

Assay [2] concerns ATCC13869-A1 strain. The assay is described as above. The following applies: minimum liquid medium, 1.25 mM to 20 mM 4-fluoroglutamic acid, 31.5° C., culture without 4-fluoroglutamic acid set to 1 (FIG. 7). The method, then: as §1
The subject of assay [3] is mutant-type yggB gene-introduced strains (ATCC13869-L30 strain, ATCC13869-A1 strain). As to the kind of experiment: Resistance to 4-fluoroglutamic acid on a solid medium. The settings on record: minimum plate medium, 7.5 mM 4-fluoroglutamic acid, 31.5° C., compared with wild-type ATCC13869 strain (FIG. 6). The method, then: 4-fluoroglutamic acid solution which was adjusted to pH6.7 with NaOH and sterilized with filtration was added to the minimum medium described in Example 4 so that the final concentration of 4-fluoroglutamic acid was 7.5 mM. Each of the ATCC13869 strain, ATCC13869-L30 strain, and ATCC13869-A1 strain was spread over the CM-Dex plate and cultured overnight.

Consider one compound from patent US8278074B2, “L-glutamic acid-producing microorganism and a method for producing L-glutamic acid” (priority 2004, dated 2012).

Consider `N[C@@H](CC(F)C(=O)O)C(=O)O` (stereo partly drawn) [4-fluoroglutamic acid], for which the “sensitivity to 4-fluoroglutamic acid (relative viable cell number)” value in assay [1] and in assay [2] was “decreased sensitivity” in each case. For the same compound, in assay [3], the “growth in the presence of 4-fluoroglutamic acid” value was “grow faster than wild-type ATCC13869 strain”.
